Test system: MV-4-11 cells
Experiment: Gene expression microarray analysis (Affymetrix PrimeView) and GSEA
Assay type: cell-based, human
Set-up: RFU PODN (11730768_x_at) / Fold change /veh PODN (11730768_x_at) / RFU LINC00158 (11744669_a_at) / Fold change /veh LINC00158 (11744669_a_at) / RFU DUSP10 (11751237_a_at) / Fold change /veh DUSP10 (11751237_a_at) / RFU ID3 (11757404_x_at) / Fold change /veh ID3 (11757404_x_at) / RFU PLEKHG5 (11737974_s_at) / Fold change /veh PLEKHG5 (11737974_s_at) / RFU LRRC4B (11730491_at) / Fold change /veh LRRC4B (11730491_at) / RFU GIMAP4 (11747438_a_at) / Fold change /veh GIMAP4 (11747438_a_at) / RFU KRT8 (11758183_x_at) / Fold change /veh KRT8 (11758183_x_at) / RFU CNN1 (11734310_a_at) / Fold change /veh CNN1 (11734310_a_at) / RFU VPS37D (11726825_at) / Fold change /veh VPS37D (11726825_at) / RFU C10orf10 (11716522_x_at) / Fold change /veh C10orf10 (11716522_x_at) / RFU KIR2DL2 /// KIR2DL4 /// KIR2DL5A /// KIR2DL5B /// KIR2DS1 /// KIR2DS2 /// KIR2DS3 /// KIR2DS4 /// KIR3DL3 /// KIR3DL3 /// KIR3DS1 (11738374_at) / Fold change /veh KIR2DL2 /// KIR2DL4 /// KIR2DL5A /// KIR2DL5B /// KIR2DS1 /// KIR2DS2 /// KIR2DS3 /// KIR2DS4 /// KIR3DL3 /// KIR3DL3 /// KIR3DS1 (11738374_at) / RFU C1QL1 (11718748_at) / Fold change /veh C1QL1 (11718748_at) / RFU TMPRSS4 (11747572_a_at) / Fold change /veh TMPRSS4 (11747572_a_at) / RFU HAMP (11756126_x_at) / Fold change /veh HAMP (11756126_x_at) / RFU RNFT2 (11725882_a_at) / Fold change /veh RNFT2 (11725882_a_at) / RFU NR4A2 (11747474_a_at) / Fold change /veh NR4A2 (11747474_a_at) / RFU ABCC12 (11746883_a_at) / Fold change /veh ABCC12 (11746883_a_at) / RFU TMEM136 (11760407_x_at) / Fold change /veh TMEM136 (11760407_x_at) / RFU CLDN22 /// WWC2 (11732394_at) / Fold change /veh CLDN22 /// WWC2 (11732394_at) / RFU HLA-DPB1 (11760878_x_at) / Fold change /veh HLA-DPB1 (11760878_x_at) / RFU SPINT1 (11716480_a_at) / Fold change /veh SPINT1 (11716480_a_at) / RFU GAP43 (11754022_s_at) / Fold change /veh GAP43 (11754022_s_at) / RFU A4GNT (11735810_at) / Fold change /veh A4GNT (11735810_at) / RFU PRB3 (11715151_x_at) / Fold change /veh PRB3 (11715151_x_at) / RFU TUBB4B (11761932_at) / Fold change /veh TUBB4B (11761932_at) / RFU CAPN14 (11732068_a_at) / Fold change /veh CAPN14 (11732068_a_at) / RFU TMCC2 (11721928_a_at) / Fold change /veh TMCC2 (11721928_a_at) / RFU IRGQ (11745062_a_at) / Fold change /veh IRGQ (11745062_a_at) / RFU FAM174B (11720279_a_at) / Fold change /veh FAM174B (11720279_a_at) / RFU TMPRSS4 (11748680_a_at) / Fold change /veh TMPRSS4 (11748680_a_at) / RFU FAM212B (11763350_a_at) / Fold change /veh FAM212B (11763350_a_at) / RFU PLEKHG5 (11743358_a_at) / Fold change /veh PLEKHG5 (11743358_a_at) / RFU ZSCAN30 (11745921_a_at) / Fold change /veh ZSCAN30 (11745921_a_at) / RFU CMKLR1 (11741424_a_at) / Fold change /veh CMKLR1 (11741424_a_at) / RFU LOC101060620 /// MAPK8IP1 (11723275_at) / Fold change /veh LOC101060620 /// MAPK8IP1 (11723275_at) / RFU SPTSSB (11747773_x_at) / Fold change /veh SPTSSB (11747773_x_at) / RFU PRSS12 (11739890_at) / Fold change /veh PRSS12 (11739890_at) / RFU BIN1 (11741810_x_at) / Fold change /veh BIN1 (11741810_x_at) / RFU WNT11 (11732464_a_at) / Fold change /veh WNT11 (11732464_a_at) / RFU C10orf10 (11716521_a_at) / Fold change /veh C10orf10 (11716521_a_at) / RFU C5orf56 (11738089_at) / Fold change /veh C5orf56 (11738089_at) / RFU CYB561 (11721691_x_at) / Fold change /veh CYB561 (11721691_x_at) / RFU ANKRD19P (11752326_a_at) / Fold change /veh ANKRD19P (11752326_a_at) / RFU OR2T12 /// OR2T33 /// OR2T8 (11738714_s_at) / Fold change /veh OR2T12 /// OR2T33 /// OR2T8 (11738714_s_at) / RFU VCAN (11748164_a_at) / Fold change /veh VCAN (11748164_a_at) / RFU JSRP1 (11732532_at) / Fold change /veh JSRP1 (11732532_at) / RFU KRTAP10-11 (11738290_x_at) / Fold change /veh KRTAP10-11 (11738290_x_at) / RFU MYO3A (11730013_a_at) / Fold change /veh MYO3A (11730013_a_at) / RFU EBF3 (11725865_a_at) / Fold change /veh EBF3 (11725865_a_at) / RFU CAMK2N1 (11719241_x_at) / Fold change /veh CAMK2N1 (11719241_x_at) / RFU C5orf56 (11738088_a_at) / Fold change /veh C5orf56 (11738088_a_at) / RFU OLFML3 (11715873_a_at) / Fold change /veh OLFML3 (11715873_a_at) / RFU LOC100653217 /// NTM (11731650_a_at) / Fold change /veh LOC100653217 /// NTM (11731650_a_at) / RFU MAPK11 (11762145_a_at) / Fold change /veh MAPK11 (11762145_a_at) / RFU FIZ1 (11724087_x_at) / Fold change /veh FIZ1 (11724087_x_at) / RFU OASL (11726364_x_at) / Fold change /veh OASL (11726364_x_at) / RFU SOX15 (11748057_x_at) / Fold change /veh SOX15 (11748057_x_at) / RFU CD79A (11719716_a_at) / Fold change /veh CD79A (11719716_a_at) / RFU HIST1H1D (11736915_at) / Fold change /veh HIST1H1D (11736915_at) / RFU CASKIN2 (11723855_a_at) / Fold change /veh CASKIN2 (11723855_a_at) / RFU LOC730098 (11760151_x_at) / Fold change /veh LOC730098 (11760151_x_at) / RFU OR4N2 (11742367_at) / Fold change /veh OR4N2 (11742367_at) / RFU PRRT2 (11749266_a_at) / Fold change /veh PRRT2 (11749266_a_at) / RFU SNX32 (11753110_a_at) / Fold change /veh SNX32 (11753110_a_at) / RFU CDHR5 (11726645_a_at) / Fold change /veh CDHR5 (11726645_a_at) / RFU RCAN1 (11760418_a_at) / Fold change /veh RCAN1 (11760418_a_at) / RFU FAM167A (11723789_a_at) / Fold change /veh FAM167A (11723789_a_at) / RFU FAM26E (11764081_at) / Fold change /veh FAM26E (11764081_at) / RFU ISYNA1 (11749810_s_at) / Fold change /veh ISYNA1 (11749810_s_at) / RFU ACY1 (11761880_at) / Fold change /veh ACY1 (11761880_at) / RFU 11764098_at / Fold change /veh 11764098_at / RFU SAMD14 (11745864_x_at) / Fold change /veh SAMD14 (11745864_x_at) / RFU NPB (11741838_a_at) / Fold change /veh NPB (11741838_a_at) / RFU TMPRSS6 (11731388_a_at) / Fold change /veh TMPRSS6 (11731388_a_at) / RFU KRTAP10-2 (11738614_at) / Fold change /veh KRTAP10-2 (11738614_at) / RFU ARHGAP8 /// PRR5-ARHGAP8 (11727945_x_at) / Fold change /veh ARHGAP8 /// PRR5-ARHGAP8 (11727945_x_at) / RFU KRTAP5-7 /// NADSYN1 (11734609_at) / Fold change /veh KRTAP5-7 /// NADSYN1 (11734609_at) / RFU RASL12 (11751679_a_at) / Fold change /veh RASL12 (11751679_a_at) / RFU CDKN2B (11736163_a_at) / Fold change /veh CDKN2B (11736163_a_at) / RFU PRF1 (11729649_at) / Fold change /veh PRF1 (11729649_at) / RFU, ZNF638 /// ZNF638-IT1 / Fold change vs veh, ZNF638 /// ZNF638-IT1 / RFU, PANK3 / Fold change vs veh, PANK3 / RFU, SH3YL1 / Fold change vs veh, SH3YL1 / RFU, ZEB2 / Fold change vs veh, ZEB2 / RFU, NRIP1 / Fold change vs veh, NRIP1 / RFU, PTTG1IP / Fold change vs veh, PTTG1IP / RFU, CAPN2 / Fold change vs veh, CAPN2 / RFU, MED14 / Fold change vs veh, MED14 / RFU, SNORA58 / Fold change vs veh, SNORA58 / RFU, C1orf63 / Fold change vs veh, C1orf63 / RFU, LRRFIP1 / Fold change vs veh, LRRFIP1 / RFU, NDUFAF7 / Fold change vs veh, NDUFAF7 / RFU, SLC12A2 / Fold change vs veh, SLC12A2 / RFU, IBTK / Fold change vs veh, IBTK / RFU, ESF1 / Fold change vs veh, ESF1 / Fold change vs veh, TMEM50B / RFU, TAOK1 / Fold change vs veh, TAOK1 / RFU, ACBD3 / Fold change vs veh, ACBD3 / RFU, TMA16 / Fold change vs veh, TMA16 / RFU, RWDD3 / Fold change vs veh, RWDD3 / RFU, BCAT1 / Fold change vs veh, BCAT1 / RFU, EDEM3 / Fold change vs veh, EDEM3 / RFU, TMEM33 / Fold change vs veh, TMEM33 / RFU, WDR75 / Fold change vs veh, WDR75 / RFU, AHCTF1 / Fold change vs veh, AHCTF1 / RFU, TFRC / Fold change vs veh, TFRC / RFU, ZDHHC17 / Fold change vs veh, ZDHHC17 / RFU, NOM1 / Fold change vs veh, NOM1 / RFU, ARL8B / Fold change vs veh, ARL8B / RFU, ZBTB11 / Fold change vs veh, ZBTB11 / RFU, TAMM41 / Fold change vs veh, TAMM41 / RFU, KIAA1704 /// LOC100996395 / Fold change vs veh, KIAA1704 /// LOC100996395 / RFU, ING1 / Fold change vs veh, ING1 / RFU, TRMT61B / Fold change vs veh, TRMT61B / RFU, FUBP3 / Fold change vs veh, FUBP3 / RFU, TP53 / Fold change vs veh, TP53 / RFU, TNKS2 / Fold change vs veh, TNKS2 / RFU, ZFP14 / Fold change vs veh, ZFP14 / RFU, ACTR2 / Fold change vs veh, ACTR2 / RFU, PPP3R1 / Fold change vs veh, PPP3R1 / RFU, PIK3R1 / Fold change vs veh, PIK3R1 / RFU, HNRNPA1 / Fold change vs veh, HNRNPA1 / RFU, RNF170 / Fold change vs veh, RNF170 / RFU, ZNF28 / Fold change vs veh, ZNF28 / RFU, RNGTT / Fold change vs veh, RNGTT / RFU, OGT / Fold change vs veh, OGT / RFU, BRD1 / Fold change vs veh, BRD1 / RFU, MARS / Fold change vs veh, MARS / RFU, ZNF655 / Fold change vs veh, ZNF655 / RFU, FAHD1 / Fold change vs veh, FAHD1 / RFU, BDP1 / Fold change vs veh, BDP1 / RFU, LRRCC1 / Fold change vs veh, LRRCC1 / RFU, ARID1A / Fold change vs veh, ARID1A / RFU, ZNF146 / Fold change vs veh, ZNF146 / RFU, ZNF330 / Fold change vs veh, ZNF330 / RFU, GPN3 / Fold change vs veh, GPN3 / RFU, C9orf123 / Fold change vs veh, C9orf123 / RFU, N4BP2L2 / Fold change vs veh, N4BP2L2 / RFU, ARFIP1 / Fold change vs veh, ARFIP1 / RFU, FAM179B / Fold change vs veh, FAM179B / RFU, BCL10 / Fold change vs veh, BCL10 / RFU, UHRF1BP1L / Fold change vs veh, UHRF1BP1L / RFU, BET1 / Fold change vs veh, BET1 / RFU, CNOT2 / Fold change vs veh, CNOT2 / RFU, ZNF268 / Fold change vs veh, ZNF268 / Fold change vs veh, ZNF507 / RFU, DGCR2 / Fold change vs veh, DGCR2 / RFU, WDSUB1 / Fold change vs veh, WDSUB1 / Fold change vs veh, HSP90B1 /// MIR3652 / RFU, ADSS / Fold change vs veh, ADSS / RFU, GK / Fold change vs veh, GK / RFU, ZNF148 / Fold change vs veh, ZNF148 / RFU, TAF9 / Fold change vs veh, TAF9 / RFU, SLC1A5 / Fold change vs veh, SLC1A5 / RFU, SLMO2 / Fold change vs veh, SLMO2 / RFU, ABCC4 / Fold change vs veh, ABCC4 / RFU, LOC101060439 /// RAP1B / Fold change vs veh, LOC101060439 /// RAP1B / RFU, RFX7 / Fold change vs veh, RFX7 / RFU, GTPBP10 / Fold change vs veh, GTPBP10 / RFU, CNEP1R1 / Fold change vs veh, CNEP1R1 / RFU, BIVM-ERCC5 /// ERCC5 / Fold change vs veh, BIVM-ERCC5 /// ERCC5 / RFU, ILF3 / Fold change vs veh, ILF3 / RFU 11762660_at / Fold change /veh 11762660_at / RFU VCAN (11757783_s_at) / Fold change /veh VCAN (11757783_s_at) / RFU DDX43 (11728927_at) / Fold change /veh DDX43 (11728927_at) / RFU KRT8 (11758188_x_at) / Fold change /veh KRT8 (11758188_x_at) / RFU NKD1 (11759106_at) / Fold change /veh NKD1 (11759106_at) / RFU SRD5A1 (11742802_a_at) / Fold change /veh SRD5A1 (11742802_a_at) / RFU TPSAB1 /// TPSB2 (11721975_s_at) / Fold change /veh TPSAB1 /// TPSB2 (11721975_s_at) / RFU GSTM3 (11746129_a_at) / Fold change /veh GSTM3 (11746129_a_at) / RFU IL23R (11737362_x_at) / Fold change /veh IL23R (11737362_x_at) / RFU TMEM51 (11727254_a_at) / Fold change /veh TMEM51 (11727254_a_at) / RFU PIWIL2 (11732686_x_at) / Fold change /veh PIWIL2 (11732686_x_at) / RFU ORM1 (11744905_x_at) / Fold change /veh ORM1 (11744905_x_at) / RFU CCDC152 (11743942_at) / Fold change /veh CCDC152 (11743942_at) / RFU ECM1 (11717891_a_at) / Fold change /veh ECM1 (11717891_a_at) / RFU IL23R (11748794_a_at) / Fold change /veh IL23R (11748794_a_at) / RFU TNFAIP8L3 (11732012_x_at) / Fold change /veh TNFAIP8L3 (11732012_x_at) / RFU MBOAT4 (11741988_at) / Fold change /veh MBOAT4 (11741988_at) / RFU 11764193_at / Fold change /veh 11764193_at / RFU TMEM53 (11763286_at) / Fold change /veh TMEM53 (11763286_at) / RFU MAGEB2 (11727129_at) / Fold change /veh MAGEB2 (11727129_at) / RFU TMEM200A (11744735_a_at) / Fold change /veh TMEM200A (11744735_a_at) / RFU CCDC152 (11751479_a_at) / Fold change /veh CCDC152 (11751479_a_at) / RFU FAM211A (11726209_a_at) / Fold change /veh FAM211A (11726209_a_at) / RFU RGS16 (11746705_a_at) / Fold change /veh RGS16 (11746705_a_at) / RFU VCAN (11755009_s_at) / Fold change /veh VCAN (11755009_s_at) / RFU RHOB (11743442_s_at) / Fold change /veh RHOB (11743442_s_at) / RFU RGS16 (11720943_a_at) / Fold change /veh RGS16 (11720943_a_at) / RFU RGS16 (11720944_at) / Fold change /veh RGS16 (11720944_at) / RFU, VPS4B / Fold change vs veh, VPS4B / RFU, CREB1 / Fold change vs veh, CREB1 / RFU, DNAJC13 / Fold change vs veh, DNAJC13 / RFU, GNAQ / Fold change vs veh, GNAQ / RFU, CDK5R1 / Fold change vs veh, CDK5R1 / RFU, ZRANB3 / Fold change vs veh, ZRANB3 / RFU, CUL4A / Fold change vs veh, CUL4A / RFU, CCNY / Fold change vs veh, CCNY / RFU, UFL1 / Fold change vs veh, UFL1 / RFU, COG3 / Fold change vs veh, COG3 / RFU, DIAPH2 / Fold change vs veh, DIAPH2 / RFU, SKA2 / Fold change vs veh, SKA2 / RFU, AFF3 / Fold change vs veh, AFF3 / RFU, LMF1 / Fold change vs veh, LMF1 / RFU, IPO11 / Fold change vs veh, IPO11 / RFU, DFFB / Fold change vs veh, DFFB / RFU, FOXP1 / Fold change vs veh, FOXP1 / RFU, CARD8 / Fold change vs veh, CARD8 / RFU, STRN3 / Fold change vs veh, STRN3 / RFU, ADK / Fold change vs veh, ADK / RFU, RASSF2 / Fold change vs veh, RASSF2 / RFU, WIPF1 / Fold change vs veh, WIPF1 / RFU, LARP1B / Fold change vs veh, LARP1B / RFU, RASA1 / Fold change vs veh, RASA1 / RFU, RB1 / Fold change vs veh, RB1 / RFU, PPFIA1 / Fold change vs veh, PPFIA1 / RFU, MAT2A / Fold change vs veh, MAT2A / RFU, CCT5 / Fold change vs veh, CCT5 / RFU, WDR92 / Fold change vs veh, WDR92 / RFU, CUX1 / Fold change vs veh, CUX1 / RFU, TTC7A / Fold change vs veh, TTC7A / RFU, TMEM135 / Fold change vs veh, TMEM135 / RFU, DEPTOR / Fold change vs veh, DEPTOR / RFU, CPM / Fold change vs veh, CPM / RFU, DNAJB6 / Fold change vs veh, DNAJB6 / RFU, CACNA2D3 / Fold change vs veh, CACNA2D3 / RFU, DTX4 / Fold change vs veh, DTX4 / RFU, TFCP2 / Fold change vs veh, TFCP2 / RFU, GMCL1 /// GMCL1P1 / Fold change vs veh, GMCL1 /// GMCL1P1 / RFU, AEBP2 / Fold change vs veh, AEBP2 / RFU, SNHG1 /// SNORD22 /// SNORD25 /// SNORD26 /// SNORD27 /// SNORD28 /// SNORD29 /// SNORD31 / Fold change vs veh, SNHG1 /// SNORD22 /// SNORD25 /// SNORD26 /// SNORD27 /// SNORD28 /// SNORD29 /// SNORD31 / Fold change (Aza/veh), C12orf56 (ProbeSet 11735607_a_at) / Fold change (ACY-1035/veh), C12orf56 (ProbeSet 11735607_a_at) / Fold change (Aza/veh), FGFR1OP (ProbeSet 11751329_s_at) / Fold change (ACY-1035/veh), FGFR1OP (ProbeSet 11751329_s_at) / Fold change (Aza/veh), VPS36 (ProbeSet 11739960_a_at) / Fold change (ACY-1035/veh), VPS36 (ProbeSet 11739960_a_at) / RFU SYPL1 (11715823_x_at) / Fold change /veh SYPL1 (11715823_x_at) / RFU IGFBP7 (11715501_s_at) / Fold change /veh IGFBP7 (11715501_s_at) / RFU REEP3 (11722064_at) / Fold change /veh REEP3 (11722064_at) / RFU IGLL1 (11728026_x_at) / Fold change /veh IGLL1 (11728026_x_at): dose or concentration left out as unconfirmed
Settings: MV-4-11 cells, 48 hours

## Nc1ncn([C@@H]2O[C@H](CO)[C@@H](O)[C@H]2O)c(=O)n1 [azacitidine]
  RFU GIMAP4 (11747438_a_at): 6.50 RFU

— PMC5218480 (PLoS ONE, 2017)
